According to the supplement of paper PMC10307832:

Key:
Experiment in all cases: relative viability (nuclei count vs DMSO), 5 days (fraction); higher = more cells survive
[1] = compound: Cc1ccc(NC(=O)c2ccc(CN3CCN(C)CC3)cc2)cc1Nc1nccc(-c2cccnc2)n1 [Imatinib] + Cc1nc(Nc2ncc(C(=O)Nc3c(C)cccc3Cl)s2)cc(N2CCN(CCO)CC2)n1 [Dasatinib] (partner 0.075 µM)
Procedure, shortened: (§1)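 Lung cancer cell lines in 1536-well plates got either a single drug or a fixed anchor-drug dose together with five library-drug doses (not always all listed) in √10 steps, by pin tool, on the day after seeding. Nuclei were counted after 5 days, and relative viability is the treated-to-vehicle ratio of nuclei counts. Values are medians of duplicate plates.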

[2] = compound: Cc1ccc(NC(=O)c2ccc(CN3CCN(C)CC3)cc2)cc1Nc1nccc(-c2cccnc2)n1 [Imatinib] + CS(=O)(=O)CCNCc1ccc(-c2ccc3ncnc(Nc4ccc(OCc5cccc(F)c5)c(Cl)c4)c3c2)o1 [Lapatinib] (partner 2 µM)
Procedure, shortened: as §1

[3] = compound: Cc1ccc(NC(=O)c2ccc(CN3CCN(C)CC3)cc2)cc1Nc1nccc(-c2cccnc2)n1 [Imatinib] + Nc1ncn([C@H]2C[C@H](O)[C@@H](CO)O2)c(=O)n1 [Decitabine] (partner 2 µM)
Procedure, shortened: as §1

[4] = compound: Cc1ccc(NC(=O)c2ccc(CN3CCN(C)CC3)cc2)cc1Nc1nccc(-c2cccnc2)n1 [Imatinib] + COc1cccc2cc(-c3nc([C@H]4CC[C@H](C(=O)O)CC4)n4ncnc(N)c34)[nH]c12 [OSI-027] (partner 0.5 µM)
Procedure, shortened: as §1

Cell Line	relative viability ([1]; first compound 0.02 µM)	relative viability ([1]; first compound 0.06325 µM)	relative viability ([1]; first compound 0.2 µM)	relative viability ([1]; first compound 0.6325 µM)	relative viability ([1]; first compound 2 µM)	relative viability ([2]; first compound 0.02 µM)	relative viability ([2]; first compound 0.06325 µM)	relative viability ([2]; first compound 0.2 µM)	relative viability ([2]; first compound 2 µM)	relative viability ([3]; first compound 0.02 µM)	relative viability ([3]; first compound 0.06325 µM)	relative viability ([3]; first compound 0.2 µM)	relative viability ([3]; first compound 0.6325 µM)	relative viability ([3]; first compound 2 µM)	relative viability ([4]; first compound 0.02 µM)	relative viability ([4]; first compound 0.06325 µM)	relative viability ([4]; first compound 0.2 µM)	relative viability ([4]; first compound 0.6325 µM)	relative viability ([4]; first compound 2 µM)	relative viability ([2]; first compound 0.6325 µM)
SK-LU-1	0.16	0.212	0.162	0.181	0.186	1.08	1.1	1.11	0.82	0.686	0.543	0.588	0.598	0.645	0.332	0.409	0.319	0.264	0.365	
NCI-H1650	0.371	0.262	0.326	0.285	0.261	0.797	0.489	0.845	0.886	0.476	0.367	0.42	0.371	0.425	0.629	0.481	0.39	0.544	0.512	0.816
EPLC-272H	0.393		0.367	0.311	0.289	0.779		0.97	0.835	0.327			0.408	0.33	0.265		0.273	0.311	0.249	1.17
EMC-BAC-2	0.337	0.349	0.322	0.327	0.308	0.937	0.702	0.833	0.873	0.998	1.04		1.07	0.936	0.378	0.338	0.39	0.399	0.364	0.972
NCI-H460	0.678	0.675	0.649	0.456	0.493	1.41	0.872	1.36	1.09	0.603	0.333	0.63	0.511	0.575	0.743	1.09	0.819	0.566	0.503	1.17
ABC-1	0.624		0.689	0.522	0.523	1.25	0.727	1.31	1.11	1.22		0.909	1.15	1.06	0.516		0.504	0.521	0.564	0.312
201T	0.594		0.625	0.61	0.496	0.993			0.989	0.855	0.8	0.841	0.852	0.843	0.865	0.798	0.762	0.761		0.989
NCI-H1755	0.415	0.392	0.41	0.422	0.408	1.14	0.994	1.06	1.02	0.689	0.693	0.702	0.708	0.69	0.748	0.554	0.829	0.634	0.594	0.997
NCI-H1355	0.766		0.659	0.696	0.678	1.04		1.1	0.99	0.359		0.35	0.345	0.35	0.386		0.388	0.315	0.432	1.02
HCC-78	0.343	0.355	0.403	0.35	0.343	0.924	0.467	0.676	1.04	0.644	0.7	0.715	0.721	0.71	0.332	0.387	0.389	0.366	0.314	
EKVX	0.58		0.549	0.502	0.505	0.222	0.189	0.197	0.197	0.325		0.375	0.352			0.388	0.65	0.551	0.868	0.208
BEN	0.312		0.307	0.339	0.296		0.465	0.725	0.54	0.711	0.557	0.738	0.732	0.732	0.285		0.262	0.287	0.302	0.697
HARA	0.309		0.279	0.217	0.27	0.629	0.996	0.83	0.781	0.584	0.518	0.503	0.473	0.579	0.47		0.518	0.583	0.404	0.748
HCC-15	0.722		0.668	0.594	0.598		0.582	1	0.839	0.605	0.598	0.638	0.677	0.524	0.716		0.623	0.683	0.666	0.901
NCI-H2009	0.282		0.304	0.253	0.288	0.974	0.442	1.05	0.939	0.434	0.346	0.346	0.425	0.363	0.666		0.672	0.623	0.582	0.87
NCI-H23	1.06	0.688	0.694	0.78	0.972	1.2	0.959	1.11	1.13	0.319	0.31	0.299	0.287	0.355	0.62	0.606	0.551	0.598	0.496	
NCI-H1395	0.438	0.347	0.381	0.393	0.418	0.956			1.19	0.754		0.656	0.678	0.69	0.63	0.443	0.705	0.581	0.606	0.988
NCI-H358	0.151	0.13	0.153	0.163	0.135	0.478		0.445	0.392	0.205	0.168	0.214	0.207	0.202	0.861	0.382	0.843	0.635	0.855	0.448
